Test results taken from PubChem BioAssay (NCI).
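Values below derive from 48-hour exposures of cells grown in 96-well plates, with endpoints linearly interpolated between the two concentrations bracketing the appropriate inhibition level. The concentration for 50% growth inhibition is given as GI50. TGI: concentration producing complete growth inhibition.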

What was measured:
Experiment in all cases: NCI anticancer screen, dose series, 48 h
OVCAR-4 ovarian = system: OVCAR-4 ovarian
UACC-62 melanoma = system: UACC-62 melanoma
OVCAR-3 ovarian = system: OVCAR-3 ovarian
CCRF-CEM leukemia = system: CCRF-CEM leukemia
IGROV1 ovarian = system: IGROV1 ovarian
MDA-MB-231 breast = system: MDA-MB-231 breast
EKVX NSCLC = system: EKVX NSCLC
KM12 colon = system: KM12 colon
T-47D breast = system: T-47D breast
MDA-MB-435 = system: MDA-MB-435

| SMILES | GI50 (OVCAR-4 ovarian) [µM] | TGI (OVCAR-4 ovarian) [µM] | GI50 (UACC-62 melanoma) [µM] | TGI (UACC-62 melanoma) [µM] | GI50 (OVCAR-3 ovarian) [µM] | TGI (OVCAR-3 ovarian) [µM] | GI50 (CCRF-CEM leukemia) [µM] | TGI (CCRF-CEM leukemia) [µM] | GI50 (IGROV1 ovarian) [µM] | TGI (IGROV1 ovarian) [µM] | GI50 (MDA-MB-231 breast) [µM] | TGI (MDA-MB-231 breast) [µM] | GI50 (EKVX NSCLC) [µM] | TGI (EKVX NSCLC) [µM] | GI50 (KM12 colon) [µM] | TGI (KM12 colon) [µM] | GI50 (T-47D breast) [µM] | TGI (T-47D breast) [µM] | GI50 (MDA-MB-435) [µM] | TGI (MDA-MB-435) [µM] |
| --- | --- | --- | --- | --- | --- | --- | --- | --- | --- | --- | --- | --- | --- | --- | --- | --- | --- | --- | --- | --- |
| CCS(=O)(=O)N1CCN(c2ccc(Nc3ncc(C(N)=O)c(NC4CC4)n3)cc2)CC1 | 12.1 | > 100 | 15.7 | 44 | 5.73 | 31.4 | 0.749 | 10.9 | 5.29 | > 100 | 22.8 | > 100 | 63 | > 100 | 0.812 | 18.5 | 2.88 | 13.9 | 5.6 | > 100 |
| COc1cccc(-c2nn(-c3ccccc3)cc2-c2ccnc(NCCCNS(=O)(=O)c3ccc(C(F)(F)F)cc3)c2)c1 | 4.36 | > 100 | 7.08 | > 100 | 5.75 | > 100 | 5.07 | > 100 | 10.7 | > 100 | 4.98 | > 100 | 4.61 | > 100 | 4.02 | > 100 | 2.54 | 9.11 | 4.2 | > 100 |
| Cc1cn(C2CC(O)C(COC(N)=O)O2)c(=O)[nH]c1=O (centres undefined) | – | > 100 | – | > 100 | – | > 100 | – | > 100 | – | > 100 | – | > 100 | – | > 100 | – | > 100 | – | > 100 | – | > 100 |
| CC(=O)/C=C/c1ccc(N(CCO)Cc2ccc(C(C)(C)C)cc2)cc1 | 43.6 | 175 | 46.6 | 176 | 60.3 | 187 | 49 | 208 | 112 | 260 | 87.9 | 225 | 31 | 162 | 39.6 | 155 | 31 | 161 | 64 | 196 |
| CCCCC[C@H]1C/C=C2/C(=O)C(Cl)=C[C@@H]2C/C=C\CCCC(=O)O1 | 0.735 | 3.83 | 0.411 | 1 | 0.366 | 1.26 | 0.113 | 2.93 | 0.444 | 1.24 | 0.642 | 2.24 | 0.56 | 1.37 | 0.518 | 1.33 | 0.554 | 2.08 | 0.337 | 1.11 |
| CCC(C)C(=O)OC1CCC=C2C=CC(C)C(CCC3CC(O)CC(=O)O3)C21 (centres undefined) | – | > 100 | – | > 100 | – | > 100 | – | > 100 | – | 44.1 | – | > 64.7 | – | > 100 | – | > 100 | – | > 100 | – | > 100 |
| C=C1C(=O)O[C@H]2[C@H]1CC/C(COC(=O)/C=C\C(=O)NCc1ccc(Cn3c(=O)sn(-c4ccc(Cl)cc4)c3=O)cc1)=C\CC[C@@]1(C)O[C@@H]21 | 0.685 | 1.37 | 0.724 | 1.47 | 0.223 | 0.821 | 0.173 | 6.65 | 0.638 | 1.36 | 0.758 | 1.76 | 0.809 | 1.58 | 0.891 | 1.82 | 0.881 | 2.15 | 0.647 | 1.33 |
| CCSCCCC(=O)O | – | > 100 | – | > 100 | – | > 100 | – | > 100 | – | > 100 | – | > 100 | – | > 100 | – | > 100 | – | > 100 | – | > 100 |
| CC(C)(C)OC(=O)N1Cc2cc3ccccc3nc2C1CO (centres undefined) | > 100 | > 100 | > 100 | > 100 | > 100 | > 100 | > 100 | > 100 | > 100 | > 100 | > 100 | > 100 | > 100 | > 100 | > 100 | > 100 | > 100 | > 100 | > 100 | > 100 |
| COc1ccc2c(c1)C(=O)c1c-2n(CCCCl)c(=O)c2cc(N)ccc12 | > 96.7 | > 100 | > 100 | > 100 | > 100 | > 100 | > 44.5 | > 59.4 | > 100 | > 100 | 25.6 | > 95.7 | > 100 | > 100 | 29.3 | > 100 | > 100 | > 100 | > 100 | > 100 |
| c1ccc2c(c1)[nH]c1c3ccccc3sc21 | – | > 100 | – | > 100 | – | > 100 | – | > 100 | – | > 100 | – | > 100 | – | > 100 | – | > 100 | – | > 100 | – | > 100 |
| N/C(=N/S(=O)(=O)c1cc(C(=O)Nc2ccc(F)cc2)c(Cl)cc1SCc1ccccc1)Nc1ccccc1O | 2.22 | 5.14 | 1.84 | 3.43 | 1.44 | 2.81 | 1.81 | 3.79 | 1.88 | 3.57 | 1.54 | 3.1 | 1.81 | 4.46 | 1.79 | 3.33 | 7.3 | 28.6 | 1.76 | 3.19 |
| CCC(=C(c1ccc(OCCN2CCCC2)cc1)c1ccc(OCCN2CCCC2)cc1)c1ccc(Cl)cc1 | 0.667 | 1.43 | 0.61 | 1.16 | 0.624 | 1.29 | 0.601 | 1.58 | 0.582 | 1.1 | 0.589 | 1.11 | 0.666 | 1.4 | 0.626 | 1.21 | 0.498 | 1.21 | 0.552 | 1.03 |
| CCOC(=O)c1ccc(NC(=O)c2cccc(NC3=C(Cl)C(=O)N(Cc4ccccc4)C3=O)c2)cc1 | > 100 | > 100 | > 100 | > 100 | > 100 | > 100 | 15.7 | 65.9 | 65 | > 100 | 92 | > 100 | > 100 | > 100 | > 100 | > 100 | > 100 | > 100 | > 100 | > 100 |
| CC1(C)CC[C@]2(CO)CC[C@]3(C)C(=CC[C@@H]4[C@@]5(C)CCNCC(C)(C)[C@@H]5CC[C@]43C)[C@@H]2C1 | 7.66 | 24 | 2.77 | 8.14 | 6.68 | 27.7 | 5.47 | 23.1 | 6.83 | 21 | 3.49 | 11.6 | 9.55 | 23.2 | 3.32 | 12.2 | 2.42 | 11.2 | 3.01 | 8.9 |
| NC(=O)c1ncn2c(=O)n(CCCl)nnc12 | > 69.4 | 437 | 44.9 | 137 | – | 475 | > 62.9 | 440 | – | 482 | – | 584 | – | 436 | > 92.4 | 408 | – | 941 | – | 388 |
